Laboratory results: patent publication EP0381514B1, “Use of N-methyl-sphingosine as inhibitor of cell growth” (The Biomembrane Institute, priority 1989, dated 1990)

Columns and labels:
C-kinase = experiment: Inhibition of C-kinase activity (liposome method, histone III-S, 32P-ATP); assay type: biochemical, human; set-up: C-kinase ³²P incorporation: unit: cpm; conditions: for inhibitory activity of C-kinase: conclusion in words from Tables I, II and Figs. 2, 3; for C-kinase ³²P incorporation %: relative to phosphatidyl-serine, diolein, Ca⁺² control = 100; for Inhibition of C-kinase (concentration in »M yielding 50% inhibition): C-kinase from A431 cells
Description: A431 cells were grown in a mixture of DME and Ham's F-12 medium (weight ratio 1:1) supplemented with 10% fetal calf serum (FCS). […] Briefly, cells were scraped by rubber policeman, suspended in 50 ml of 20 mM Tris-HCL (pH 7.5), 2 mM EDTA, 0.5 mM EGTA, 0.15 U/ml aprotinine, and 0.25 M sucrose, and homogenized by 50 strokes at 4°C in a Dounce homogenizer (40-ml size, Wheaton). The homogenized cells were ultracentrifuged at 100,000 xg for 60 min. The supernatant was purified on a DE52 column equilibrated with 20 mM Tris-HCL (pH 7.5), 2 mM EDTA, and 0.5 mM EGTA (buffer B), and washed well with this buffer. The C-kinase activity was eluted with buffer B containing 0.1 M NaCl.
The lipid mixture was sonicated in 30 »l of 20 mM Tris-HCl (pH 7.5) for 30 min. The liposomes in the tube were supplemented with the reaction mixture, consisting of 25 mM Tris-HCl (pH 7.5), 10 mM MgCl₂, 400 »M EDTA, 50 »M EGTA, 500 »M CaCl₂, 200 »g/ml Histone III-S, and 20 »M gamma-[³²P]-ATP (2 x 10⁶ cpm); final volume was 90 »l.
The reaction was initiated by addition of 10 »l of C-kinase fraction (containing 1-2 »g protein) prepared as described above, and the reaction mixture was incubated for 10 min at 30°C. […] The value without phosphatidylserine, 1,2-diolein, or Ca²⁺ were used as a control.

[1] = test system: human colonic cancer cells HRT-18; experiment: Inhibition of growth of human colonic cancer cells HRT-18 in vitro (cell count after 3 days); assay type: cell-based; conditions: HRT-18, 3 days
Description: HRT-18 cells were seeded in plates in Dulbecco's modified Eagle's medium supplemented with 10% fetal calf serum (5 x 10⁵ cells per each 3 cm plate). After the cells were cultured overnight, the medium was replaced with the same media containing various concentrations of N,N-dimethyl- or N-monomethyl sphingosine, N-acetylsphingosine, and ceramide as shown in Fig. 4. Cultures were continued for 3 days, and cell numbers were counted. The percent inhibition of cell numbers in the presence of reagents was calculated as percent of control dishes, which contained no sphingosine derivatives.

[2] = test system: human peripheral blood lymphocytes; experiment: Inhibition of IL-2-dependent mitogenesis (3H-thymidine incorporation), human lymphocytes; assay type: cell-based; conditions: 0.5 U/ml IL-2
Description: Human peripheral blood lymphocytes isolated from human blood by known methods were cultured in RPMI containing 0.5 U/ml IL-2. […] Mitogenesis was measured by incorporation of ³H-thymidine into DNA over a 5-hour period. Percent inhibition as compared to the control value (without addition of any inhibitor) was determined.

mouse splenocytes [3] = experiment: Inhibition of IL-2-dependent mitogenesis, mouse splenocytes; assay type: cell-based
Description: The effect of N,N-dimethyl-sphingosine (prepared from naturally occurring sphingolipid as described in Example 3) on IL-2-dependent mitogenesis was tested using human peripheral blood lymphocytes and mouse splenocytes.
Inhibition of IL-2-induced mitogenesis of mouse splenocytes was determined in an analogous manner.

[4] = test system: human peripheral blood lymphocytes; experiment: Inhibition of concanavalin-A-induced mitogenesis (3H-thymidine uptake), human lymphocytes; assay type: cell-based; conditions: 2 »g con-A/ml
Description: Peripheral blood lymphocytes isolated from human blood by known methods were cultured in RPMI containing 2 »g con-A/ml for 18 hours in multiple wells. Subsequently, various concentrations of N,N-dimethylsphingosine, sphingosine, or N-acetylsphingosine as shown in Fig. 6 were added to the culture media and cultured continuously for 5 hours, followed by addition of ³H-thymidine. The thymidine uptake over a 5-hour period was determined. The % inhibition of mitogenesis was calculated based on control value (without addition of any inhibitor).

HRT18 tumor cells = experiment: Inhibition of in vivo growth of HRT18 tumor cells in nude mice; conditions: 44 »g/200 »l in PBS injected at day 7, 11 and 15; tumor weight estimated by size; significant (p>0.005 as printed)
Description: The effect of N,N-dimethyl-sphingosine (prepared from naturally occurring sphingolipid as described in Example 3) on in vivo growth of HRT18 tumor cells in nude mice was determined as follows.
1 x 10⁶ HRT-18 human colonic cancer cells were inoculated into nude mice at day 0 by known methods. N,N-dimethylsphingosine emulsified in phosphate buffered saline (PBS) (44 »g/200 »l) was injected at day 7, 11, and 15. Tumor growth weight in mg was estimated by the size of the tumors. Each group consisted of ten animals.

mouse splenocytes [5] = experiment: Inhibition of concanavalin-A-induced mitogenesis, mouse splenocytes; assay type: cell-based
Description: The effect of N,N-dimethyl-sphingosine (prepared from naturally occurring sphingolipid as described in Example 3) on conconavalin-A (con-A) -induced mitogenesis was tested using human peripheral blood lymphocytes and mouse splenocytes.
Inhibition of con-A-induced mitogenisis of mouse splenocytes was determined in an analogous manner.

## CCCCCCCCCCCCC/C=C/[C@@H](O)[C@H](CO)N(C)C [N,N-dimethyl-D-erythro-sphingenine]
C-kinase
  inhibitory activity of C-kinase: strikingly strong inhibitory activity
C-kinase; lipid added at 2 »M
  C-kinase ³²P incorporation: 34206 ± 1220
C-kinase; lipid added at 2 »M, 2 µM
  C-kinase ³²P incorporation %: 86 ± 3%
C-kinase; lipid added at 10 »M
  C-kinase ³²P incorporation: 20563 ± 1173
C-kinase; lipid added at 10 »M, 10 µM
  C-kinase ³²P incorporation %: 52 ± 3%
C-kinase; lipid added at 25 »M
  C-kinase ³²P incorporation: 15214 ± 377
C-kinase; lipid added at 25 »M, 25 µM
  C-kinase ³²P incorporation %: 38 ± 1%
C-kinase; lipid added at 50 »M
  C-kinase ³²P incorporation: 5254
C-kinase; lipid added at 50 »M, 50 µM
  C-kinase ³²P incorporation %: 13%

## CCCCCCCCCCCCC/C=C/[C@H](O)[C@H](CO)N(C)C [N,N-dimethyl-L-threo-sphingosine]
[1]; at 12.5 »M concentration
  inhibition of cell growth: significantly inhibited

## CCCCCCCCCCCCC/C=C/[C@@H](O)[C@@H](N)CO [D-erythro-sphingenine, D(+)-erythro-sphingenine, reference compound]
C-kinase
  inhibitory activity of C-kinase: weak and similar inhibitory activity
C-kinase; lipid added at 50 »M
  C-kinase ³²P incorporation: 18754 ± 2184
C-kinase; lipid added at 50 »M, 50 µM
  C-kinase ³²P incorporation %: 47 ± 6%

## Lactosylsphingosine [reference compound]
C-kinase
  Inhibition of C-kinase (concentration in »M yielding 50% inhibition): no inhibition

## CCCCCCCCCCCCC/C=C/[C@@H](O)[C@H](CO)NC(C)=O [N-acetylsphingosine, reference compound]
[2]
  inhibition of IL-2-dependent mitogenesis: less so
C-kinase
  Inhibition of C-kinase (concentration in »M yielding 50% inhibition): no inhibition
[1]; at 150 »M concentration
  inhibition of cell growth: minimum inhibition

## Ceramide [reference compound]
C-kinase
  Inhibition of C-kinase (concentration in »M yielding 50% inhibition): no inhibition
[1]; at 150 »M concentration
  inhibition of cell growth: minimum inhibition

## N-monomethyl-sphingosine
[1]; at 12.5 »M concentration
  inhibition of cell growth: significantly inhibited

## CCCCCCCCCCCCC/C=C/[C@@H](O)[C@H](CO)N(C)C [N,N-dimethyl-sphingosine]
Mouse splenocytes [3]
  inhibitory effect on IL-2-dependent mitogenesis: strong inhibitory effect
[2]
  inhibition of IL-2-dependent mitogenesis: invariably inhibited
[4]
  inhibition of con-A-dependent growth stimulation: greatly inhibited
HRT18 tumor cells
  inhibition of growth: more than 50%
Mouse splenocytes [5]
  inhibitory effect on concanavalin-A-induced mitogenesis: strong inhibitory effect
[1]; at 12.5 »M concentration
  inhibition of cell growth: significantly inhibited

## CCCCCCCCCCCCC/C=C/[C@H](O)[C@@H](CO)N(C)C [N,N-dimethyl-L-erythro-sphingenine]
C-kinase
  inhibitory activity of C-kinase: weaker inhibitory activity
C-kinase; lipid added at 2 »M
  C-kinase ³²P incorporation: 37354 ± 1420
C-kinase; lipid added at 2 »M, 2 µM
  C-kinase ³²P incorporation %: 95 ± 4%
C-kinase; lipid added at 10 »M
  C-kinase ³²P incorporation: 25583 ± 1931
C-kinase; lipid added at 10 »M, 10 µM
  C-kinase ³²P incorporation %: 65 ± 5%
C-kinase; lipid added at 25 »M
  C-kinase ³²P incorporation: 21743 ± 577
C-kinase; lipid added at 25 »M, 25 µM
  C-kinase ³²P incorporation %: 55 ± 2%
C-kinase; lipid added at 50 »M
  C-kinase ³²P incorporation: 11020
C-kinase; lipid added at 50 »M, 50 µM
  C-kinase ³²P incorporation %: 28%

## CCCCCCCCCCCCC/C=C/[C@H](O)[C@H](N)CO [L-erythro-sphingenine, L(-)-erythro-sphingenine, reference compound]
C-kinase
  inhibitory activity of C-kinase: weak and similar inhibitory activity
C-kinase; lipid added at 50 »M
  C-kinase ³²P incorporation: 18549 ± 2760
C-kinase; lipid added at 50 »M, 50 µM
  C-kinase ³²P incorporation %: 47 ± 7%

## CCCCCCCCCCCCC/C=C/[C@@H](O)[C@@H](N)CO [sphingosine]
[2]
  inhibition of IL-2-dependent mitogenesis: less so
